Measurements reported in patent publication EP3521435A1, “A HIGH STRINGENCY SELECTION SYSTEM FOR PROTEIN EXPRESSION IN PROLINE-AUXOTROPHIC CELLS” (Bayer AG, priority 2018, dated 2019).

Columns and labels:
[1] = test system: CHO-K1 cells; assay: Cell viability post-transfection of transfected cell populations under selection conditions; format: cell-based, Chinese hamster
Method: (§1) To efficiently test the impact of different procedures on improving selection stringency, experimental testing in stable cell populations was performed. As test molecules, enhanced green fluorescent protein (GFP) as well as a human IgG1 were chosen. CHO-K1 cells adapted to growth in suspension in defined medium were obtained from SAFC and cultivated in EX-CELL CD CHO Fusion medium (SAFC 14365C). Custom-made EX-CELL CD CHO Fusion medium without L-Proline (Pro) and without L-Ornithine (Orn) ("proline-free medium") was obtained from SAFC. The expression vector system was based on modified versions of "CET 1019 AS-puro-SceI" and "CET 1019 AD-puro-SceI" for GFP and human IgG1, respectively, from Merck-Millipore, containing the Puromycin selection marker (Puromycin N-acetyl-transferase) known to exert a high selection stringency. To minimize variations in cell populations derived from using different transfections or different vectors, the first series of experiments were conducted using vectors into which a P5CS expression cassette was cloned upstream of a UCOE element, in addition to the Puromycin selection marker present downstream of a gene of interest. This way, it was possible to pool different transfections using the same vector to obtain a common starting point, and split the mixture according to different selection conditions, minimizing any variations that are not due to selection conditions themselves. Expression of long and short isoform of murine P5CS (Protein: Delta-1-pyrroline-5-carboxylate synthase; Gene: Aldh18a1; UniProtKB accession number: Q9Z110-1 & Q9Z110-2) was driven by a SV40 promoter. A SV40 polyadenylation sequence was used at the 3' end of the gene. More details can be found in Table 1. Typically, CHO cells were cultivated in EX-CELL CD CHO Fusion medium containing 6 mM GlutaMAX (Thermo Fisher, 35050-38) ("CD-Fusion medium") at 37 °C with 5% CO2. Cells were grown to logarithmic phase under shaking conditions for transfections. 1e7 cells/cuvette were transfected using nucleofection (Amaxa Nucleofector II, following the manufacturer's recommendations) with 5 µg of linearized DNA. After transfection, cells were taken up in 1 ml medium and transferred into 1 well of a 6 well microtiter plate (MTP) already containing 1 ml medium. The cells were incubated for 24 h without shaking, after which 9 ml medium were added and cells were washed (either in standard or proline-free medium). Multiple transfections were pooled, if applicable. Cells were adjusted to 2e5 viable cells/ml and 10 ml were transferred to T-25 flasks. Reference cell populations were selected using 10 µg/ml Puromycin in CD-Fusion medium. For P5CS-based selection, EX-CELL CD CHO Fusion medium (custom-made, SAFC) containing 6 mM GlutaMAX without proline and without ornithine was used ("proline-free" or "CD-Fusion w/o Pro" medium), with or without additional selection pressure.
(§2) Cell viability of the different populations was monitored over time. As soon as cell populations appeared to recover from selection pressure, cells were transferred to Shake Flask or TubeSpins for expansion in suspension under shaking conditions. Subsequently, stable cell populations transfected with IgG were seeded at 2e5 viable cells/ml for batch fermentation without selection pressure (i.e. standard CD-Fusion medium containing proline and no other selective agents). The cells were cultivated for 5-10 days, viable cell densities and productivity were monitored over time. IgG titers were determined using Poros A-HPLC method. Typically, final batch titers were recorded at a time point at which majority of cultures had around 70% viability. Stable cell populations transfected with GFP vector were subjected to analysis by flow cytometry using Guava easyCyte 8HT Benchtop Flow Cytometer (Millipore). 250 µl of cell culture were transferred to 96 MTP and washed with PBS. Dead cells were excluded from analysis using propidium iodide (PI). […]

[2] = test system: CHO-K1 cells; assay: Batch fermentation in shake flasks of human IgG1 expressing stable cell populations (Poros A-HPLC titer, viable cell density, viability); format: cell-based, Chinese hamster; details: for Productivity profile / Batch titer day 7: human IgG1
Method: as §1, §2

[3] = MOCK, CD Fusion + 10 µg/ml Puromycin
[4] = MOCK, CD-Fusion w/o Pro + 10 µg/ml Puromycin
[5] = MOCK, CD-Fusion w/o Pro + 0.25 mM Pro + 10 µg/ml Puromycin
[6] = pJF1555, CD-Fusion w/o Pro + 0.25 mM Pro + 10 µg/ml Puromycin
[7] = pJF1576, CD-Fusion + 10 µg/ml Puromycin
[8] = pJF2053, CD-Fusion + 10 µg/ml Puromycin
[9] = Day 2 after inoculation, pJF1576, selected in CD Fusion + 10 µg/ml Puromycin, non-selecting conditions
[10] = Day 2 after inoculation, pJF1576, selected in CD-Fusion w/o Pro + 0.25 mM Pro + 10 µg/ml Puromycin, non-selecting conditions
[11] = Day 3 after inoculation, pJF1576, selected in CD Fusion + 10 µg/ml Puromycin, selective conditions
[12] = Day 4 after inoculation, pJF1576, selected in CD Fusion + 10 µg/ml Puromycin, non-selecting conditions
[13] = Day 4 after inoculation, pJF1576, selected in CD-Fusion w/o Pro + 0.25 mM Pro + 10 µg/ml Puromycin, non-selecting conditions
[14] = Day 5 after inoculation, pJF1576, selected in CD Fusion + 10 µg/ml Puromycin, selective conditions
[15] = Day 7 after inoculation, pJF1576, selected in CD Fusion + 10 µg/ml Puromycin, non-selecting conditions
[16] = Day 7 after inoculation, pJF1576, selected in CD Fusion + 10 µg/ml Puromycin, selective conditions
[17] = Day 7 after inoculation, pJF1576, selected in CD-Fusion w/o Pro + 0.25 mM Pro + 10 µg/ml Puromycin, non-selecting conditions
[18] = Day 9 after inoculation, pJF1576, selected in CD Fusion + 10 µg/ml Puromycin, non-selecting conditions
[19] = Day 9 after inoculation, pJF1576, selected in CD-Fusion w/o Pro + 0.25 mM Pro + 10 µg/ml Puromycin, non-selecting conditions

Compound: COc1ccc(C[C@H](N)C(=O)N[C@H]2[C@@H](O)[C@H](n3cnc4c(N(C)C)ncnc43)O[C@@H]2CO)cc1 [Puromycin]
- Viability on day 12 post-transfection [1, 3]: 25%
- Viability on day 13 post-transfection [1, 3]: 9%
- Viability on day 14 post-transfection [1, 3]: 19%
- Viability on day 13 post-transfection [1, 4]: 14%
- Viability on day 14 post-transfection [1, 4]: 23%
- Viability on day 12 post-transfection [1, 5]: 23%
- Viability on day 13 post-transfection [1, 5]: 13%
- Viability on day 14 post-transfection [1, 5]: 20%
- Viability on day 12 post-transfection ([1]; Table 8, pJF1555, CD-Fusion w/o Pro + 0.25 mM Pro + 10 µg/ml Puromycin): 83%
- Viability on day 12 post-transfection ([1]; Table 12, pJF1555, CD-Fusion + 10 µg/ml Puromycin): 86%
- Viability on day 12 post-transfection ([1]; Table 12, pJF1555, CD-Fusion w/o Pro + 0.25 mM Pro + 10 µg/ml Puromycin): 63%
- Viability on day 14 post-transfection ([1]; pJF1555, CD Fusion + 10 µg/ml Puromycin): 75%
- Viability on day 19 post-transfection ([1]; pJF1555, CD-Fusion + 10 µg/ml Puromycin): 49%
- Viability on day 14 post-transfection ([1]; pJF1555, CD-Fusion w/o Pro + 10 µg/ml Puromycin): 79%
- Viability on day 14 post-transfection [1, 6]: 79%
- Viability on day 19 post-transfection [1, 6]: 48%
- Viability on day 13 post-transfection ([1]; pJF1556, CD Fusion + 10 µg/ml Puromycin): 81%
- Viability on day 13 post-transfection ([1]; pJF1556, CD-Fusion w/o Pro + 10 µg/ml Puromycin): 92%
- Viability on day 13 post-transfection ([1]; pJF1556, CD-Fusion w/o Pro + 0.25 mM Pro + 10 µg/ml Puromycin): 90%
- Viability on day 12 post-transfection [1, 7]: 78%
- Viability on day 21 post-transfection [1, 7]: 98.4%
- Viability on day 12 post-transfection ([1]; pJF1576, CD-Fusion w/o Pro + 0.25 mM Pro + 10 µg/ml Puromycin): 79%
- Viability on day 21 post-transfection ([1]; pJF1579, CD-Fusion + 10 µg/ml Puromycin): 98.8%
- Viability on day 15 post-transfection [1, 8]: 86.6%
- Viability on day 22 post-transfection [1, 8]: 98.6%
- Viability on day 22 post-transfection ([1]; pJF2222, CD-Fusion + 10 µg/ml Puromycin): 98.7%
- Viability profile ([2]; Day 0 after inoculation, pJF1576, selected in CD Fusion + 10 µg/ml Puromycin, non-selecting conditions): 98.7%
- Viability profile ([2]; Day 0 after inoculation, pJF1576, selected in CD Fusion + 10 µg/ml Puromycin, selective conditions): 92.8%
- Viability profile ([2]; Day 0 after inoculation, pJF1576, selected in CD-Fusion w/o Pro + 0.25 mM Pro + 10 µg/ml Puromycin, non-selecting conditions): 99.0%
- Productivity profile [2, 9]: 6.9 mg/L
- Productivity profile ([2]; Day 2 after inoculation, pJF1576, selected in CD Fusion + 10 µg/ml Puromycin, selective conditions): 10.9 mg/L
- Productivity profile [2, 10]: 11.2 mg/L
- Viability profile [2, 9]: 99.0%
- Viable cell density profile [2, 9]: 7,7E+05 VCD/ml
- Viability profile [2, 10]: 99.1%
- Viable cell density profile [2, 10]: 8,3E+05 VCD/ml
- Viability profile [2, 11]: 98.4%
- Viable cell density profile [2, 11]: 1.7E+06 VCD/ml
- Productivity profile [2, 12]: 15.1 mg/L
- Productivity profile ([2]; Day 4 after inoculation, pJF1576, selected in CD Fusion + 10 µg/ml Puromycin, selective conditions): 27.6 mg/L
- Productivity profile [2, 13]: 24.1 mg/L
- Viability profile [2, 12]: 99.7%
- Viable cell density profile [2, 12]: 6,2E+06 VCD/ml
- Viability profile [2, 13]: 99.8%
- Viable cell density profile [2, 13]: 5,4E+06 VCD/ml
- Viability profile [2, 14]: 99.1%
- Viable cell density profile [2, 14]: 7.1E+06 VCD/ml
- Productivity profile [2, 15]: 43.3 mg/L
- Productivity profile [2, 16]: 60.5 mg/L
- Productivity profile [2, 17]: 60.6 mg/L
- Viability profile [2, 15]: 98.7%
- Viable cell density profile [2, 15]: 1,2E+07 VCD/ml
- Viability profile [2, 16]: 97.7%
- Viable cell density profile [2, 16]: 1.1E+07 VCD/ml
- Viability profile [2, 17]: 97.8%
- Viable cell density profile [2, 17]: 1,0E+07 VCD/ml
- Productivity profile [2, 18]: 61.5 mg/L
- Productivity profile [2, 19]: 92.5 mg/L
- Viability profile [2, 18]: 43.9%
- Viable cell density profile [2, 18]: 5,8E+06 VCD/ml
- Viability profile [2, 19]: 58.1%
- Viable cell density profile [2, 19]: 6,2E+06 VCD/ml
- Batch titer day 7 ([2]; pJF1576, selected in CD Fusion + 10 µg/ml Puromycin, non-selecting conditions): 145 mg/L
- Batch titer day 7 ([2]; pJF1576, selected in CD-Fusion w/o Pro + 10 µg/ml Puromycin, non-selecting conditions): 198 mg/L
- Batch titer day 7 ([2]; pJF1576, selected in CD-Fusion w/o Pro + 0.25 mM Pro + 10 µg/ml Puromycin, non-selecting conditions): 164 mg/L
- Batch titer day 7 ([2]; pJF1577, selected in CD Fusion + 10 µg/ml Puromycin, non-selecting conditions): 174 mg/L
- Batch titer day 7 ([2]; pJF1577, selected in CD-Fusion w/o Pro + 10 µg/ml Puromycin, non-selecting conditions): 154 mg/L
- Batch titer day 7 ([2]; pJF1577, selected in CD-Fusion w/o Pro + 0.25 mM Pro + 10 µg/ml Puromycin, non-selecting conditions): 127 mg/L
